This assay has as its target FXR (Homo sapiens (Human), UniProt Q96RI1). The assay can be described thus: FXR EC50 (FXR agonist potency reported with each Example). The format is cell-based.
FXR, sequence (Q96RI1 262-486): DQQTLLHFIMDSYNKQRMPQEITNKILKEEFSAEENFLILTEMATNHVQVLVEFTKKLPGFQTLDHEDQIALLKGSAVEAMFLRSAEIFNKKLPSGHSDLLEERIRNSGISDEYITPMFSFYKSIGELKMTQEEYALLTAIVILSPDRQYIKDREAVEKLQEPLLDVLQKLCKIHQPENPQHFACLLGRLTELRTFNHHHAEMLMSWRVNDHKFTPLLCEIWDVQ
Consider `Cn1nc(-c2cccc(N(CC34CCC(c5nc(C6CC6)no5)(CC3)CC4)C(=O)C34CC(F)(C3)C4)c2)cc1C1CC1` [Example 75, N-((4-(3-cyclopropyl-1,2,4-oxadiazol-5-yl)bicyclo[2.2.2]octan-1-yl)methyl)-N-(3-(5-cyclopropyl-1-methyl-1H-pyrazol-3-yl)phenyl)-3-fluorobicyclo[1.1.1]pentane-1-carboxamide], for which the midpoint of the response, the EC50, lay at 247 nM.
Turning to `O=C(C1CCC1)N(CC12CCC(c3nc(CC4CC4)no3)(CC1)CC2)c1cccc(-c2nc(C3CC3)no2)c1` [Example 71, N-(3-(3-cyclopropyl-1,2,4-oxadiazol-5-yl)phenyl)-N-((4-(3-(cyclopropylmethyl)-1,2,4-oxadiazol-5-yl)bicyclo[2.2.2]octan-1-yl)methyl)cyclobutanecarboxamide], it took 406 nM to reach a half-maximal effect (EC50).
`Cn1nc(C2CC2)cc1C12CCC(CN(C(=O)C34CC(F)(C3)C4)c3cccc(-c4noc(C(F)F)n4)c3)(CC1)CC2` [Example 164, N-((4-(3-cyclopropyl-1-methyl-1H-pyrazol-5-yl)bicyclo[2.2.2]octan-1-yl)methyl)-N-(3-(5-(difluoromethyl)-1,2,4-oxadiazol-3-yl)phenyl)-3-fluorobicyclo[1.1.1]pentane-1-carboxamide] came in with an EC50 of 104 nM. Against the preceding compound, the EC50 is about 3.9-fold lower.
Then `CC(N(C(=O)C12CC(F)(C1)C2)c1cccc(-c2nc(C3CC3)no2)c1)C12CCC(c3nc(C4CC4)no3)(CC1)CC2` (single isomer, unassigned) [Example 217, N-(1-(4-(3-cyclopropyl-1,2,4-oxadiazol-5-yl)bicyclo[2.2.2]octan-1-yl)ethyl)-N-(3-(3-cyclopropyl-1,2,4-oxadiazol-5-yl)phenyl)-3-fluorobicyclo[1.1.1]pentane-1-carboxamide], with 1440 nM; and `Cn1nc(-c2cccc(N(CC34CCC(c5nc(C6CC6)no5)(CC3)CC4)C(=O)C3CC(C(F)F)C3)c2)cc1C1CC1` (centres unmarked) [Example 78, N-((4-(3-cyclopropyl-1,2,4-oxadiazol-5-yl)bicyclo[2.2.2]octan-1-yl)methyl)-N-(3-(5-cyclopropyl-1-methyl-1H-pyrazol-3-yl)phenyl)-3-(difluoromethyl)cyclobutane-1-carboxamide], with 607 nM.
Regarding `COC1(c2nc(-c3cccc(N(CC45CCC(c6nc(C7CC7)no6)(CC4)CC5)C(=O)C45CC(F)(C4)C5)c3)no2)CC1` [Example 147, N-((4-(3-cyclopropyl-1,2,4-oxadiazol-5-yl)bicyclo[2.2.2]octan-1-yl)methyl)-3-fluoro-N-(3-(5-(1-methoxycyclopropyl)-1,2,4-oxadiazol-3-yl)phenyl)bicyclo[1.1.1]pentane-1-carboxamide], a half-maximal effect (EC50) was put at 79 nM.
As to `COc1cc(-c2cccc(N(CC34CCC(c5ccc(C(C)(C)C#N)cc5)(CC3)OC4)C(=O)C34CC(F)(C3)C4)c2)ccn1` [Example 222, N-((1-(4-(2-cyanopropan-2-yl)phenyl)-2-oxabicyclo[2.2.2]octan-4-yl)methyl)-3-fluoro-N-(3-(2-methoxypyridin-4-yl)phenyl)bicyclo[1.1.1]pentane-1-carboxamide], the EC50 worked out at 285 nM.
Then `O=C(N(CC12CCC(c3nc(C4CC4)no3)(CC1)OC2)c1cccc(-c2cc(C3CC3)on2)c1)C12CC(F)(C1)C2` [Example 199, N-((1-(3-cyclopropyl-1,2,4-oxadiazol-5-yl)-2-oxabicyclo[2.2.2]octan-4-yl)methyl)-N-(3-(5-cyclopropylisoxazol-3-yl)phenyl)-3-fluorobicyclo[1.1.1]pentane-1-carboxamide], with 281 nM; and `O=C(C1CC(C(F)F)C1)N(CC12CCC(c3nc(C4CC4)no3)(CC1)CC2)c1cccc(-c2cnc(C3CC3)o2)c1` (centres unmarked) [Example 24, N-((4-(3-cyclopropyl-1,2,4-oxadiazol-5-yl)bicyclo[2.2.2]octan-1-yl)methyl)-N-(3-(2-cyclopropyloxazol-5-yl)phenyl)-3-(difluoromethyl)cyclobutane-1-carboxamide], with 281 nM.
In the case of `CCOC(=O)c1nc(-c2cccc(N(CC34CCC(c5nc(C6CC6)no5)(CC3)CC4)C(=O)C34CC(F)(C3)C4)c2)cs1` [Example 29, Ethyl 4-(3-(N-((4-(3-cyclopropyl-1,2,4-oxadiazol-5-yl)bicyclo[2.2.2]octan-1-yl)methyl)-3-fluorobicyclo[1.1.1]pentane-1-carboxamido)phenyl)thiazole-2-carboxylate], a half-maximal effect (EC50) was put at 1090 nM.
Then `O=C(C1CC(F)(F)C1)N(CC12CCC(c3nc(C4CC4)no3)(CC1)CC2)c1cccc(-c2cnc(C3CCOCC3)o2)c1` [Example 36, N-((4-(3-cyclopropyl-1,2,4-oxadiazol-5-yl)bicyclo[2.2.2]octan-1-yl)methyl)-3,3-difluoro-N-(3-(2-(tetrahydro-2H-pyran-4-yl)oxazol-5-yl)phenyl)cyclobutane-1-carboxamide], with 497 nM; and `O=C(C1CC(F)(F)C1)N(CC12CCC(c3nc(CC4CC4)no3)(CC1)CC2)c1cccc(-c2nc(C3CC3)no2)c1` [Example 70, N-(3-(3-cyclopropyl-1,2,4-oxadiazol-5-yl)phenyl)-N-((4-(3-(cyclopropylmethyl)-1,2,4-oxadiazol-5-yl)bicyclo[2.2.2]octan-1-yl)methyl)-3,3-difluorocyclobutane-1-carboxamide], with 598 nM; and `O=C(N(CC12CCC(c3nnc(C4CC4)o3)(CC1)CC2)c1cccc(-c2nnc(C3CC3)o2)c1)C12CC(F)(C1)C2` [Example 136, N-((4-(5-cyclopropyl-1,3,4-oxadiazol-2-yl)bicyclo[2.2.2]octan-1-yl)methyl)-N-(3-(5-cyclopropyl-1,3,4-oxadiazol-2-yl)phenyl)-3-fluorobicyclo[1.1.1]pentane-1-carboxamide], with 141 nM.
Then `Cn1nc(C2CC2)cc1C12CCC(CN(C(=O)C34CC(F)(C3)C4)c3cccc(-c4noc(C5(C)CC5)n4)c3)(CC1)CC2` [Example 166, N-((4-(3-cyclopropyl-1-methyl-1H-pyrazol-5-yl)bicyclo[2.2.2]octan-1-yl)methyl)-3-fluoro-N-(3-(5-(1-methylcyclopropyl)-1,2,4-oxadiazol-3-yl)phenyl)bicyclo[1.1.1]pentane-1-carboxamide], with 82 nM; and `CC(C)(C)c1nc(C23CCC(CN(C(=O)C45CC(F)(C4)C5)c4cccc(-c5nnc(C6CC6)o5)c4)(CC2)CC3)no1` [Example 157, N-((4-(5-(tert-butyl)-1,2,4-oxadiazol-3-yl)bicyclo[2.2.2]octan-1-yl)methyl)-N-(3-(5-cyclopropyl-1,3,4-oxadiazol-2-yl)phenyl)-3-fluorobicyclo[1.1.1]pentane-1-carboxamide], with 43 nM; and `O=C(C1CC(F)(F)C1)N(CC12CCC(c3nc(C4CC4)no3)(CC1)CC2)c1cccc(-c2cc(C3CC3)on2)c1` [Example 60, N-((4-(3-cyclopropyl-1,2,4-oxadiazol-5-yl)bicyclo[2.2.2]octan-1-yl)methyl)-N-(3-(5-cyclopropylisoxazol-3-yl)phenyl)-3,3-difluorocyclobutane-1-carboxamide], with 230 nM.
The compound `O=C(N(CC12CCC(c3nc(CC4CC4)no3)(CC1)CC2)c1cccc(-c2nc(CC3CC3)no2)c1)C12CC(F)(C1)C2` [Example 61, N-((4-(3-(cyclopropylmethyl)-1,2,4-oxadiazol-5-yl)bicyclo[2.2.2]octan-1-yl)methyl)-N-(3-(3-(cyclopropylmethyl)-1,2,4-oxadiazol-5-yl)phenyl)-3-fluorobicyclo[1.1.1]pentane-1-carboxamide] yielded an EC50 of 99 nM.

The values above are taken from patent publication US11254663B2 (BRISTOL-MYERS SQUIBB COMPANY, priority 2019, dated 2022).
